PubChem BioAssay (NCI)
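Five concentrations, 48 hours, 96-well plates. GI50: concentration for 50% inhibition of growth. TGI is the concentration that stops growth completely.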

Test system: COLO 205 colon
Test: DTP human tumour cell line panel, 48 h

For Cc1ccc(-c2c(C#N)c(-c3ccc(C)cc3)n(NS(=O)(=O)c3ccccc3)c(=O)c2C#N)cc1, which TGI is on record?
Its TGI is over 100 µM.

Which TGI does the source give for C[n+]1c2ccc(Cl)cc2nc2cc(-c3ccccc3)ccc21 here?
The TGI was 16 µM.

Test system: DU-145 prostate
Test: DTP human tumour cell line panel, 48 h

How did the GI50 turn out when CC1=C(C(=O)Nc2ccc(F)c(Cl)c2)C(c2ccccc2O)NC(=S)N1 (configuration not stated) was run?
The GI50 was 17.3 µM.

What about the TGI of the same compound?
The TGI was 45.7 µM.

With Cc1cc(C)c2c(n1)sc1c(Nc3ccc(Cl)cc3)ncnc12 as the compound, how does the GI50 read?
Its GI50 is under 0.01 µM.

And the TGI?
The TGI was over 100 µM.

How did the TGI turn out when C[n+]1c2ccc(Cl)cc2nc2cc(-c3ccccc3)ccc21 was run?
The TGI was 50.8 µM.

COc1cc(C2C3C=CC=C4CC=CC(=C43)C3CCC(=O)N32)cc(OC)c1OC (configuration not stated) was tested. Which TGI did it give?
The TGI was over 100 µM.

Test system: EKVX NSCLC
Test: DTP human tumour cell line panel, 48 h

Which TGI does the source give for c1ccc(N=C(N2CCCC2)N(CCN2CCCC2)c2ccccc2)cc1 here?
The TGI was over 100 µM.

For COc1cc(/C=C/C(=O)c2ccc(O)c(OC)c2)ccc1O, which TGI is on record?
Its TGI is 41.6 µM.

For Cc1ccc(-c2c(C#N)c(-c3ccc(C)cc3)n(NS(=O)(=O)c3ccccc3)c(=O)c2C#N)cc1, which TGI is on record?
The TGI was over 100 µM.

Which TGI does the source give for C[n+]1c2ccc(Cl)cc2nc2cc(-c3ccccc3)ccc21 here?
Its TGI is 29.9 µM.

For COc1cc(C2C3C=CC=C4CC=CC(=C43)C3CCC(=O)N32)cc(OC)c1OC (configuration not stated), which TGI is on record?
The TGI was over 100 µM.

Test system: HCC-2998 colon
Test: DTP human tumour cell line panel, 48 h

Which GI50 does the source give for Cc1cc(C)c2c(n1)sc1c(Nc3ccc(Cl)cc3)ncnc12 here?
The GI50 was 7.4 µM.

And the TGI?
Its TGI is over 100 µM.

Which TGI does the source give for Cc1ccc(-c2c(C#N)c(-c3ccc(C)cc3)n(NS(=O)(=O)c3ccccc3)c(=O)c2C#N)cc1 here?
The TGI was over 100 µM.

With C[n+]1c2ccc(Cl)cc2nc2cc(-c3ccccc3)ccc21 as the compound, how does the TGI read?
Its TGI is 31.7 µM.

Test system: HCT-116 colon
Test: DTP human tumour cell line panel, 48 h

CC1=C(C(=O)Nc2ccc(F)c(Cl)c2)C(c2ccccc2O)NC(=S)N1 (configuration not stated) was tested. Which GI50 did it give?
Its GI50 is over 50 µM.

What about the TGI of the same compound?
The TGI was over 50 µM.

With c1ccc(N=C(N2CCCC2)N(CCN2CCCC2)c2ccccc2)cc1 as the compound, how does the TGI read?
The TGI was over 100 µM.

Which GI50 does the source give for Cc1cc(C)c2c(n1)sc1c(Nc3ccc(Cl)cc3)ncnc12 here?
The GI50 was under 0.01 µM.

What about the TGI of the same compound?
Its TGI is over 100 µM.

Cc1ccc(-c2c(C#N)c(-c3ccc(C)cc3)n(NS(=O)(=O)c3ccccc3)c(=O)c2C#N)cc1 was tested. Which TGI did it give?
The TGI was over 100 µM.

How did the TGI turn out when C[n+]1c2ccc(Cl)cc2nc2cc(-c3ccccc3)ccc21 was run?
The TGI was over 100 µM.

With COc1cc(C2C3C=CC=C4CC=CC(=C43)C3CCC(=O)N32)cc(OC)c1OC (configuration not stated) as the compound, how does the TGI read?
Its TGI is over 100 µM.

Test system: HCT-15 colon
Test: DTP human tumour cell line panel, 48 h

With CC1=C(C(=O)Nc2ccc(F)c(Cl)c2)C(c2ccccc2O)NC(=S)N1 (configuration not stated) as the compound, how does the GI50 read?
The GI50 was 45.1 µM.

And the TGI?
Its TGI is over 50 µM.

How did the TGI turn out when c1ccc(N=C(N2CCCC2)N(CCN2CCCC2)c2ccccc2)cc1 was run?
The TGI was over 100 µM.

For Cc1cc(C)c2c(n1)sc1c(Nc3ccc(Cl)cc3)ncnc12, which GI50 is on record?
Its GI50 is under 0.01 µM.

And the TGI?
The TGI was over 100 µM.

How did the TGI turn out when Cc1ccc(-c2c(C#N)c(-c3ccc(C)cc3)n(NS(=O)(=O)c3ccccc3)c(=O)c2C#N)cc1 was run?
The TGI was over 100 µM.

With C[n+]1c2ccc(Cl)cc2nc2cc(-c3ccccc3)ccc21 as the compound, how does the TGI read?
The TGI was 39 µM.

How did the TGI turn out when COc1cc(C2C3C=CC=C4CC=CC(=C43)C3CCC(=O)N32)cc(OC)c1OC (configuration not stated) was run?
Its TGI is over 100 µM.

Test system: HL-60(TB) leukemia
Test: DTP human tumour cell line panel, 48 h

What does the source list for CC1=C(C(=O)Nc2ccc(F)c(Cl)c2)C(c2ccccc2O)NC(=S)N1 (configuration not stated)?
GI50: > 50 µM; TGI: > 50 µM

For c1ccc(N=C(N2CCCC2)N(CCN2CCCC2)c2ccccc2)cc1, which TGI is on record?
Its TGI is over 100 µM.

Cc1cc(C)c2c(n1)sc1c(Nc3ccc(Cl)cc3)ncnc12 was tested. Which GI50 did it give?
The GI50 was under 0.01 µM.

For C[n+]1c2ccc(Cl)cc2nc2cc(-c3ccccc3)ccc21, which TGI is on record?
The TGI was 10.7 µM.

Which TGI does the source give for COc1cc(C2C3C=CC=C4CC=CC(=C43)C3CCC(=O)N32)cc(OC)c1OC (configuration not stated) here?
Its TGI is over 100 µM.

Test system: HOP-62 NSCLC
Test: DTP human tumour cell line panel, 48 h

For CC1=C(C(=O)Nc2ccc(F)c(Cl)c2)C(c2ccccc2O)NC(=S)N1 (configuration not stated), which GI50 is on record?
The GI50 was over 50 µM.

What about the TGI of the same compound?
Its TGI is over 50 µM.

Which TGI does the source give for c1ccc(N=C(N2CCCC2)N(CCN2CCCC2)c2ccccc2)cc1 here?
Its TGI is over 100 µM.

With Cc1cc(C)c2c(n1)sc1c(Nc3ccc(Cl)cc3)ncnc12 as the compound, how does the GI50 read?
Its GI50 is under 0.01 µM.

Cc1ccc(-c2c(C#N)c(-c3ccc(C)cc3)n(NS(=O)(=O)c3ccccc3)c(=O)c2C#N)cc1 was tested. Which TGI did it give?
Its TGI is over 100 µM.

How did the TGI turn out when C[n+]1c2ccc(Cl)cc2nc2cc(-c3ccccc3)ccc21 was run?
The TGI was over 100 µM.

With COc1cc(C2C3C=CC=C4CC=CC(=C43)C3CCC(=O)N32)cc(OC)c1OC (configuration not stated) as the compound, how does the TGI read?
Its TGI is over 100 µM.

Test system: HOP-92 NSCLC
Test: DTP human tumour cell line panel, 48 h

For CC1=C(C(=O)Nc2ccc(F)c(Cl)c2)C(c2ccccc2O)NC(=S)N1 (configuration not stated), which GI50 is on record?
Its GI50 is over 50 µM.

What about the TGI of the same compound?
Its TGI is over 50 µM.

c1ccc(N=C(N2CCCC2)N(CCN2CCCC2)c2ccccc2)cc1 was tested. Which TGI did it give?
The TGI was over 100 µM.

How did the GI50 turn out when Cc1cc(C)c2c(n1)sc1c(Nc3ccc(Cl)cc3)ncnc12 was run?
The GI50 was 0.0288 µM.

With COc1cc(/C=C/C(=O)c2ccc(O)c(OC)c2)ccc1O as the compound, how does the TGI read?
Its TGI is 50.7 µM.

Cc1ccc(-c2c(C#N)c(-c3ccc(C)cc3)n(NS(=O)(=O)c3ccccc3)c(=O)c2C#N)cc1 was tested. Which TGI did it give?
The TGI was over 100 µM.
